Test results taken from patent publication US20140349314A1, “METHODS AND COMPOSITIONS FOR DETECTING AND TREATING INFLAMMATORY DISEASE” (Beth Israel Deaconess Medical Center, Inc., priority 2010, published 2014).
Where a SMILES comes first, the peptide text is derived from it. The star is where a group is joined. Cbz = O=C(OCc1ccccc1)*

How the values were obtained:
[1] = tested on: MP-stimulated MMP-3 mRNA expression in HSC; assay: Signaling pathway inhibition: MP-stimulated MMP-3 mRNA expression in HSC; format: cell-based, human; settings: for inhibition of MP-stimulated MMP-3 induction: vs untreated S100-MP stimulated controls, SB 5 μg/mL, MG 15 μg/mL
Procedure: In order to define major signaling pathways that lead to MMP-induction by S100-MP, we used specific inhibitors of several kinases. MP-stimulated MMP-3 mRNA expression served as fibrolytic read-out.
Pathway inhibition experiments were performed in 24 hour serum-starved HSC. […] The proteasome inhibitor MG132 (Rockland Inc., USA) was used to block NFκB nuclear translocation and activity.

CD54 (ICAM-1) on HSC = assay: ICAM-1 (CD54) upregulation on HSC by TNFα (flow cytometry); format: cell-based, human
Procedure: TNFα (PEPROTECH®, Rocky Hill, N.J., USA) was added to HSC cultures, and ICAM-1 expression assessed after 2, 4 and 24 hrs by flow cytometric analysis using anti-ICAM-1-FITC (eBioscience™, San Diego, Calif., USA) on a LSR2 FACS analyzer as described above.

HSC [2] = assay: MMP transcript levels in HSC after S100-MP with or without TNFα; format: cell-based, human
Procedure: FIG. 13C is a graph showing mRNA transcript levels of the indicated MMP gene in HSC after addition of S100-MP with or without TNFα (10 ng/mL) for 24 h (*p<0.05, **p=0.04, ***p=0.001).
It remained to be shown what cell membrane molecule(s) or receptor(s) mediate(s) attachment and uptake of S100-MP by HSC. […] Assuming that ICAM-1 on the recipient HSC is engaged by CD11a/CD18 on the S100-MP, any treatment of HSC that increases CD54 should enhance MP uptake and subsequent fibrolytic activation of HSC. We therefore incubated HSC with 10 ng/mL TNF-α, a strong inducer of CD54, which induced a robust (>10-fold) upregulation of CD54 after 24 hrs (FIG. 13B). This led to a further significant MP-induced increase (by 40%) of MMP-3 mRNA expression in the induced HSC as compared to untreated HSC (FIG. 13C). […] For MMP-3 the effect of combined TNF-α and MP treatment was overadditive as compared to the added effects of TNF-α or S100-MP alone (FIG. 13C).

[3] = tested on: TGFβ1 (5 ng/mL)-activated HSC; assay: Fibrosis-related transcript levels in TGFβ1-activated HSC incubated with S100-MP; format: cell-based, human; settings: 5 ng/mL TGFβ1
Procedure: FIG. 9 is a series of graphs showing mRNA transcript levels of the indicated gene in TGFβ1 (5 ng/mL)-activated HSC when incubated with the indicated amount of S100-MP for 24 hours. All experiments were performed at least twice with n=3-4 per group. Results (means±SD) are expressed as arbitrary units relative to beta2-microglobulin mRNA; *p<0.05 vs. medium control.
Human HSC were exposed to 5 ng/mL TGFβ1, which elicits a strong fibrogenic response. […] Thus TGFβ1 enhanced HSC procollagen α1(I) expression 2.7-fold, which after MP addition was reduced by almost 40%, and MP increased the expression of MMP-3 and MMP-13 almost 2.5- and 2.1-fold, respectively.
HSC (200×10^3/well) were seeded into six-well cell culture plates and serum-starved as above. HSC were then incubated with 1×10^3 or 50×10^3 S10-MP or S100-MP for 24 hours, followed by total RNA extraction from cells using TRIzol (Invitrogen, Carlsbad, Calif.). One μg of RNA was reverse-transcribed using random primers and Superscript RNase H-reverse transcriptase (Invitrogen). […] Relative transcript levels were quantified by real-time RT-PCR on a LightCycler 1.5 instrument (Roche, Mannheim, Germany) using the TaqMan methodology as described previously (52). […] Experiments were performed in triplicates and values represent means±SD, being expressed as arbitrary units relative to the housekeeping gene beta2-microglobulin.

HSC [4] = assay: Apoptosis assay (Annexin V / 7-AAD FACS) in HSC; format: cell-based, human
Procedure: It was reported earlier that MP derived from macrophages could trigger apoptosis in recipient cells.
24 hrs serum-starved HSC were incubated with S100-MP for 24 hrs. Apoptosis and necrosis induction by S100-MP were assessed by FACS analysis for Annexin V and 7-aminoactinomycin D staining (both from eBioscience™, San Diego, Calif., USA) on a LSR2 FACS analyzer with CELLQuest software (Becton Dickinson, San Jose, Calif.).

[5] = tested on: human LX-2 hepatic stellate cells (HSC); assay: Fibrosis-related transcript levels by quantitative RT-PCR in LX-2 HSC incubated with T cell-derived MP; format: cell-based; settings: 24 hours
Procedure: Effect of S100 T Cell-MP on Fibrosis-Related Gene Expression by HSC Fibrosis related transcripts were measured from 200×10^3 serum-starved human LX-2 HSC 24 hours after addition of 1×10^3 or 50×10^3 S100-MP from Jurkat T cells using quantitative RT-PCR. S10-MP, plain medium, and ST alone served as controls. MP were obtained from PHA-activated and/or apoptotic (ST-treated) Jurkat T cells. After T cell apoptosis induction, significant changes in fibrosis-related transcripts were found with 50×10^3 S100-MP, while equivalent amounts of S10-MP had no effect (FIG. 6). […] Similar results were obtained when S100-MP were incubated with freshly isolated primary rat HSC. Here the human S100-MP induced MMP-3 even 9-fold (FIG. 7).
For induction of apoptosis T cells were cultured in RPMI and treated with 4 μM/mL Staurosporine (ST, Cell Signaling Technology®, Danvers, Mass.) for 4 hours. […]
HSC (200×10^3/well) were seeded into six-well cell culture plates and serum-starved as above. […] Relative transcript levels were quantified by real-time RT-PCR on a LightCycler 1.5 instrument (Roche, Mannheim, Germany) using the TaqMan methodology as described previously (52). […] Experiments were performed in triplicates and values represent means±SD, being expressed as arbitrary units relative to the housekeeping gene beta2-microglobulin.

With `CC(C)C[C@@H](C=O)NC(=O)[C@H](CC(C)C)NC(=O)[C@H](CC(C)C)NC(=O)OCc1ccccc1` [MG132] (Cbz-Leu-Leu-Leu-aldehyde) the “inhibition of MP-stimulated MMP-3 induction” value [1] was 50%.
In the case of `C[S+]([O-])c1ccc(-c2nc(-c3ccncc3)c(-c3ccc(F)cc3)[nH]2)cc1` (stereo not drawn) [SB203580], the “inhibition of MP-stimulated MMP-3 induction” value [1] was 50%.
In the case of TNF-α, the “upregulation of CD54 on HSC” value (CD54 (ICAM-1) on HSC; 10 ng/mL TNF-α, after 24 hrs) was over 10 fold, the “upregulation of CD54 on HSC” value (CD54 (ICAM-1) on HSC; TNFα 10 ng/mL for 0, 4, and 24 hours) was 40% and the “further MP-induced increase of MMP-3 mRNA in TNF-α-induced HSC as compared to untreated HSC” value (HSC [2]; TNF-α 10 ng/mL plus S100-MP, 24 h) was 40%. The “effect of TNF-α alone on HSC MMP-3 mRNA” value (HSC [2]; TNF-α alone) was “not capable to enhance”, the “effect of TNF-α alone on HSC MMP-9 and MMP-13 expression” value (HSC [2]; TNF-α alone) was “modestly induced” and the “effect of combined TNF-α and MP treatment on MMP-3 compared to added single effects” value (HSC [2]; TNF-α plus S100-MP) was “overadditive”.
`N#CC(=C(/N)Sc1ccccc1N)/C(C#N)=C(\N)Sc1ccccc1N` [U0126] was tested, and the “effect on MP-stimulated MMP-3 mRNA, in words” value [1] was “Complete abrogation”.
In the case of “TGFβ1: profibrogenic cytokine used to activate HSC”, the “enhancement of HSC procollagen α1(I) expression” value [3] was 2.7 fold.
With `CN[C@@H]1C[C@H]2O[C@@](C)([C@@H]1OC)n1c3ccccc3c3c4c(c5c6ccccc6n2c5c31)C(=O)NC4` [ST, staurosporine] the “apoptosis or necrosis induction in HSC, in words” value (HSC [4]; 24 hours of incubation, ST 0.04 μM/mL) was “induced apoptosis”, the “late apoptosis of HSC” value (HSC [4]; 24 hours, ST alone) was at most 10% and the “necrosis of HSC” value (HSC [4]; 24 hours, ST alone) was “up to 14%”. For the same compound, the “higher percentage of late apoptotic HSC compared to S100-MP” value (HSC [4]; ST 0.04 μM/mL, 7-AAD/Annexin FACS) was 7 fold and the “effect on fibrosis-related gene expression (MMPs, TIMP-1, procollagen α1(I)) in HSC, in words” value [5] was “induced only MMP-9”.
